Source: PMC12117180, “DNA‐Binding Properties of Non‐Intercalating Water‐Soluble Organometallic Ir(III) Luminophores” (Chemistry (Weinheim an Der Bergstrasse, Germany), 2025)

Tests used:
[1] = ITC dilution experiments (self-aggregation); format: physicochemical
Source text: To explore whether multiple binding modes are indeed present for these complexes interacting with DNA, we turned to isothermal titration calorimetry (ITC). ITC typically involves titrating a relatively concentrated solution of the binder into a more dilute solution of DNA (instead of titrating a relatively concentrated DNA solution into a more dilute solution of the binder). Therefore, the possible self‐aggregation of the DNA binders was explored through dilution experiments in which solutions of a complex at representative concentrations in buffer (25 mM MOPS, pH 7.0, 50 mM NaCl) were diluted into matched buffer in the calorimeter cell.
Further experiments at different complex concentrations confirm this sigmoidal behavior of the dilution heat effects around a critical concentration. […] Nevertheless, self‐assembled nanoparticles of organic fluorophores with micromolar CACs have been reported.^[ [43] ^]
CACs are typical for cooperative aggregation processes, such as micellization, and we therefore interpret the data as [Ir(L1)2(en)]Cl cooperatively self‐aggregating in these buffer conditions (25 mM MOPS, pH 7.0, 50 mM NaCl). While it is known that the determination of aggregation numbers from titration calorimetry data is challenging, other thermodynamic parameters are readily available. […] The molar enthalpy for self‐aggregation of −92 kJ mol^−1 (difference between average pre‐ and post‐CAC heat effects) indicates a highly exothermic self‐aggregation process accompanied by a T×Δ°S aggregation of […]. […]
Buffers employed in the experiments were 50 mM NaCl and 25 mM MOPS (adjusted to pH 7 with NaOH) and 5 mM NaCl and 25 mM MOPS (adjusted to pH 7 with NaOH). […] Concentrations of solutions of complexes and of DNA were determined using UV‐visible spectroscopy. […]

FSDNA [2] = assay: Isothermal titration calorimetry of DNA binding, two types of independent binding sites; design: species or system fish; conditions: 25 mM MOPS, 5 mM NaCl, pH 7.0, 25 °C; for K A1 / n A1: high-affinity site; for K B1 / n B1: low-affinity site
Description: Cooperative self‐aggregation of DNA binders in combination with DNA binding makes data analysis complex because of the presence of coupled equilibria.^[ [46] ^] In the case of aggregation of charged species, the aggregation process tends to be very sensitive to salt concentration. We therefore studied self‐aggregation in buffer at a lower salt concentration (25 mM MOPS, pH 7.0, 5 mM NaCl) and found no indications of self‐aggregation. We therefore opted to carry out the ITC experiments in a buffer with a reduced salt concentration of 5 mM. Titrations were carried out in two parts, viz. a first titration focussing on the first binding event followed by a second titration focussing on the second binding event (Figures S23–25 with complex and DNA concentrations for each individual titration in Table S5). Figures S23 and S25 clearly show two binding events, as anticipated from UV‐visible titrations.
We analyzed the data using a model involving two types of independent binding sites, correcting for dilution heat effects in our custom data analysis software I2CITC^[ [45], [47] ^] […] The complexes also bind to a second lower affinity type of binding site with a size of approximately 2–3 basepairs with an affinity K B1 of the order of 10^5 M^−1 in an exothermic process. Based on the combination of binding site size and the exothermic interaction, we attribute the low‐affinity binding event to non‐specific binding of the cationic complexes to negatively charged DNA, supported by hydrophobic interactions between complexes. The binding site size of the higher affinity binding site exceeds the dimensions of the complexes of around five base pairs, as estimated from the docking studies (vide supra). […] Intriguingly, the relatively low ΔH A1 is in line with groove binding.^[ [48] ^]
Buffers employed in the experiments were 50 mM NaCl and 25 mM MOPS (adjusted to pH 7 with NaOH) and 5 mM NaCl and 25 mM MOPS (adjusted to pH 7 with NaOH). Solutions of DNA were prepared by diluting the DNA stock solutions (see UV‐visible titrations) as required. Complex solutions were prepared by dissolving 5 mg of the complex in 5 mL of buffer, then filtered through a 0.22 µm PES filter to ensure uniform solutions for ITC titration. Concentrations of solutions of complexes and of DNA were determined using UV‐visible spectroscopy. Calorimetric titrations were carried out at 25 °C on a MicroCal PEAQ‐ITC microcalorimeter (Malvern Instruments Ltd., Worcestershire, UK). The instrument was operated by applying a reference power of 10 μcal/s in high‐feedback mode, stirring the sample cell contents at 750 rpm, with a pre‐injection initial delay of 60 s. Solutions of complexes were loaded into the calorimeter injection syringe and DNA solutions were loaded into the sample cell. All experiments involved an initial injection of 0.4 µL in 0.8 s followed by 18 further injections of 2.0 µL in 4.0 s per injection into the calorimeter sample cell. Injections were spaced by at least 90 s to allow full recovery of the baseline. Raw data were treated using MicroCal PEAQ‐ITC Analysis Software (1.41) to generate both integrated heat effects per injection (ΔQ) and molar heat effects per injection (ΔH). Further data analysis was carried out using I2CITC.^[ [45], [47] ^]

fish sperm DNA (FSDNA) = assay: UV-visible titrations with fish sperm DNA, multiple independent binding sites (MIS) model; conditions: 25 mM MOPS, 50 mM NaCl, pH 7.0, 25 °C; for K (apparent DNA-binding affinity): association constant
Description: We then studied the interactions of the complexes with double‐stranded DNA using UV‐visible titrations. Briefly, solutions of 44.14, 31.52, 35.17, 37.55, and 29.62 µM for the five complexes [Ir(L1‐5)2(en)]Cl, respectively, were titrated (in duplicate) with fish sperm DNA (FSDNA) at 25 °C (Figure 7 and Figures S19–22). The interactions between these complexes and DNA turned out not to involve a single type of binding site (vide infra). Nevertheless, the data from the UV‐visible titrations were provisionally analyzed globally using the multiple independent binding sites (MIS) model to determine apparent binding affinities and apparent binding site sizes (Table 4).
All solutions were prepared by dissolving solids in a buffer with stirring, then filtration through a 0.22 µm PES filter to remove solid particles and ensure uniform, saturated solutions before titration. Concentrations were determined using extinction coefficients. MOPS buffer was prepared by dissolving MOPS (3‐(N‐morpholino)propanesulfonic acid, NaCl (all obtained from Fisher and used as supplied) in deionized water (Elga Purelab Flex), adjusting the pH to 7.0 using a NaOH solution (pH of the buffer was determined using a Hanna Instruments pH211 microprocessor pH meter with a Bioblock Scientific pH probe) and making up the solution to 0.5 liter. A stock solution of fish sperm DNA was prepared by dissolving approximately 0.1 g of fish sperm DNA in 10 mL of the buffer. The resulting solution was dialyzed (3.5 kDa MWCO, Visking, Medicell International Ltd) against 0.5 liters of buffer. Following dialysis, the DNA concentration was determined using UV‐visible spectroscopy using a molar absorption coefficient ε260 nm = 12 800 M^−1 cm^−1.^[ [37] ^] Spectra and titrations were plotted in OriginLab Origin 2019b. The titration data were analyzed globally for each complex using an in‐house written version of the multiple independent binding sites model which also explicitly takes changing ligand concentrations into account.^[ [49] ^]

[3] = Solubility limits in buffer from saturated solutions; format: physicochemical
Description: We next estimated the solubility limits of the complexes in buffer (25 mM MOPS, pH 7.0, 50 mM NaCl) from saturated solutions, using the molar absorption coefficients in Table S4 (see also Figures S14–18). […] These values mirror the trend predicted (via logP^[ [39] ^]) for the relative hydrophobicities of the cyclometalating ligands, which is ultimately controlled by the ligand substituent (H vs Me vs OMe vs Cl vs OCF3).

FSDNA [4] = assay: Steady-state and time-resolved luminescence in absence and presence of FSDNA; design: species or system fish; conditions: for luminescence intensity enhancement following the addition of DNA: λex = 410 nm, 25 mM MOPS, pH 7.0, 50 mM NaCl, uncorrected for dilution; for increase (lifetime) on DNA binding: time-resolved luminescence, with vs without FSDNA
Description: Finally, the influence of DNA binding on the luminescence properties of the complexes was investigated. Steady‐state fluorescence spectra (using λ ex = 410 nm) were recorded both in the absence and presence of FSDNA, using a buffer of 25 mM MOPS, pH 7.0, and 50 mM NaCl. First, the appearance and shape of the emission bands (Figure S26) were not influenced by binding to DNA; the position of the emission maxima and the peak shape were generally retained upon the addition of DNA. […] The time‐resolved luminescence measurements support the inhibition of excited state quenching processes leading to the observed increase in integrated intensity.
All reactions were performed with the use of a vacuum line and Schlenk techniques. Reagents were commercial grade and were used without further purification. ^1H, ^19F, and ^13C NMR spectra were recorded on a Bruker Avance dpx 500 MHz spectrometer and were recorded on d^6‐DMSO solutions. ^1H, ^13C{^1H} NMR chemical shifts (δ) were determined relative to internal tetramethylsilane, Si(CH3)4 and are given in ppm. Mass spectra were obtained by the staff at Cardiff University using a Waters Xevo G2‐XS QTof spectrometer. All photophysical data was obtained on a JobinYvon‐Horiba Fluorolog‐3 spectrometer fitted with a JY TBX picosecond photodetection module. The pulsed source was a Nano‐LED configured for 295 nm output operating at 1 MHz. Luminescence lifetime profiles were obtained using the JobinYvon–Horiba FluoroHub single photon counting module and the data fits yielded the lifetime values using DAS6 deconvolution software. IR spectra were recorded on an ATR‐equipped Shimadzu IRAffinity‐1 spectrophotometer. UV‐vis data were recorded as solutions on a Perkin Elmer Lamda20 spectrophotometer. The pH values of aqueous solutions were determined using a Hanna Instruments pH211 microprocessor pH meter with a Bioblock Scientific pH electrode.

[5] = buffer 25 mM MOPS, pH 7.0, 50 mM NaCl, saturated solutions, estimated via molar absorption coefficients

| SMILES | critical aggregation concentration (CAC) ([1]; 25 mM MOPS, pH 7.0, 50 mM NaCl, 25 °C) [µM] | molar enthalpy for self‐aggregation ([1]; difference between average pre‐ and post‐CAC heat effects) [kcal/mol] | equilibrium constant for aggregation ([1]; from CAC, 25 mM MOPS, pH 7.0, 50 mM NaCl) [M⁻¹] | K A1 (FSDNA [2]) | n A1 (FSDNA [2]) [bp^−1] | K B1 (FSDNA [2]) | n B1 (FSDNA [2]) | binding site size (apparent) (fish sperm DNA (FSDNA)) [base pairs] | K (apparent DNA-binding affinity) (fish sperm DNA (FSDNA)) | Solubility limit ([3]; pH 7) [µM] | Solubility limit [3, 5] [µM] | luminescence intensity enhancement following the addition of DNA (FSDNA [4]) | increase (lifetime) on DNA binding (FSDNA [4]) [%] |
| --- | --- | --- | --- | --- | --- | --- | --- | --- | --- | --- | --- | --- | --- |
| NCCN.[Cl-].[Ir+3].[c-]1ccccc1-c1nc2ccccc2s1.[c-]1ccccc1-c1nc2ccccc2s1 [[Ir(L1)2(en)]Cl] | 2.1 | -22 | 480000 | 239 10^6 M^−1 | 0.06 | 0.14 10^6 M^−1 | 0.46 | 0.70 ± 0.15 | 4.3 ± 5.3 10^5 M^−1 | 978 | – | – | – |
| Cc1c[c-]c(-c2nc3ccccc3s2)cc1.Cc1c[c-]c(-c2nc3ccccc3s2)cc1.NCCN.[Cl-].[Ir+3] [[Ir(L2)2(en)]Cl] | – | – | – | 132 10^6 M^−1 | 0.03 | 0.41 10^6 M^−1 | 0.57 | 0.64 ± 0.05 | 4.2 ± 3.7 10^5 M^−1 | – | 327 | – | – |
| COc1c[c-]c(-c2nc3ccccc3s2)cc1.COc1c[c-]c(-c2nc3ccccc3s2)cc1.NCCN.[Cl-].[Ir+3] [[Ir(L3)2(en)]Cl] | – | – | – | 19 10^6 M^−1 | 0.07 | 0.13 10^6 M^−1 | 0.31 | 0.76 ± 0.04 | 4.6 ± 2.3 10^5 M^−1 | – | 739 | 40–65% | – |
| Clc1c[c-]c(-c2nc3ccccc3s2)cc1.Clc1c[c-]c(-c2nc3ccccc3s2)cc1.NCCN.[Cl-].[Ir+3] [[Ir(L4)2(en)]Cl] | – | – | – | – | – | – | – | 0.43 ± 0.19 | 0.8 ± 0.7 10^5 M^−1 | – | 100 | – | 75 |
| FC(F)(F)Oc1c[c-]c(-c2nc3ccccc3s2)cc1.FC(F)(F)Oc1c[c-]c(-c2nc3ccccc3s2)cc1.NCCN.[Cl-].[Ir+3] [[Ir(L5)2(en)]Cl] | – | – | – | – | – | – | – | 0.92 ± 0.18 | 0.6 ± 0.3 10^5 M^−1 | – | 75 | 40–65% | 98 |
